Structures can show the parent of a compound that is named as a salt. Where two headings read alike, the source gives them in different places.
Legend:
[1] = Bulk stability under stressed conditions, one or two weeks; type: physicochemical; details: all temperatures and humidities tested, one week or two weeks
Procedure: Bulk Stability Under Stressed Conditions: About 20-30 mg of the trihydrate form of the dihydrochloride salt was weighed into HPLC vials and stressed at 25° C. and 60% relative humidity (open), 40° C. and 75% relative humidity (open), and 60° C. (closed) for one week and for two weeks.

[2] = Stability of the trihydrate form stored in bulk in a GMP storage facility; type: physicochemical; details: room temperature, RH >30%, up to 11 years
Procedure: The trihydrate form was evaluated for stability with regard to purity and strength over a time period of up to 11 years, by storing it in a GMP facility under controlled conditions of temperature and relative humidity (temperature=room temperature and relative humidity >30%).

[3] = Bulk stability in very high humidity, one week; type: physicochemical
Procedure: Bulk Stability in Very High Humidity: The trihydrate form of the dihydrochloride salt was stressed at 25° C. and 97% relative humidity (open), 40° C. and 96% relative humidity (open), and 60° C. and 96% relativity humidity (open) for one week.

[4] = for Resulting Form: slurry, antisolvent Water, ambient, 3 weeks
Procedure: Noncompetitive Slurry Experiments for Polymorph Screening: Noncompetitive slurry experiments were performed as a supplemental polymorph screening method. When suspensions of a polymorphic material are prepared, any polymorphic form with a lower solubility (more thermodynamically stable form) can nucleate. The nucleated forms can convert all the residual solids to the nucleated form via solvent-mediated phase transition. Suspensions of the isolated Form I were prepared by adding excess solid to several different solvent systems. The suspensions were stirred vigorously at ambient temperature for 3 weeks. The remaining solids were collected by vacuum filtration and analyzed by powder X-ray diffraction to determine if any changes in the crystalline form of the solids occurred.

[5] = Dehydration profile by thermographic analysis (TGA); type: physicochemical; details: 25° C. to 250° C.
Procedure: Thermographic analysis (TGA) curves were generated for the anhydrate and trihydrate using a Perkin Elmer TGA-7. Three to five milligram samples were weighed into aluminum sample pans and run under dry nitrogen at 5° C./minute from 25° C. to 250° C. The data were exported to Excel to enable plotting.
The two differ in the appearance of the dehydration mass loss observed for the trihydrate and absent as expected from the anhydrate. Dehydration of the trihydrate started immediately upon start of heating and was complete by approximately 50° C. Complete dehydration below 100° C. is consistent with the assignment of the trihydrate as a channel type hydrate.

[6] = 12-month stability of the anhydrous form at controlled temperature and humidity (HPLC, water content); type: physicochemical; details: 25° C./60% RH
Procedure: The dihydrochloride salt, anhydrous form of (3S, 4R, 3′R)-6-[4-(4-amino-5-chloro-2-methoxy-benzoylamino)-3-methoxy-piperidin-1-yl]-hexanoic acid 1-azabicyclo[2.2.2]oct-3′-yl ester, was placed in stability chambers with temperature and humidity controlled, for up to 12 months. The temperature was set at 25° C., and the relative humidity was set at 60%. The samples were assayed at time zero, then at 3, 6, 9, and 12 months using an HPLC method. The HPLC conditions were as follows:
Column: Inertsil C8-3, 250 mm length, 3 mm diameter, 5 um particle size
Mobile Phase A: 2000 mL water+3 mL formic acid
Mobile Phase B: 1000 mL methanol+3 mL formic acid
Detection wavelength: 275 nm

Compound: COc1cc(N)c(Cl)cc1C(=O)N[C@@H]1CCN(CCCCCC(=O)O[C@H]2CN3CCC2CC3)C[C@@H]1OC [Compound 1, (3S, 4R, 3′R)-6-[4-(4-amino-5-chloro-2-methoxy-benzoylamino)-3-methoxy-piperidin-1-yl]-hexanoic acid 1-azabicyclo[2.2.2] oct-3′-yl ester di-hydrochloride salt]
- Physical and chemical stability [1]: both physically and chemically stable
- Stability under GMP storage [2]: stable
- Physical and chemical stability ([3]; 25° C. and 97% relative humidity (open)): both physically and chemically stable
- Physical and chemical stability ([3]; temperature elevated to 40° C. or 60° C., 96% relative humidity (open)): underwent liquescence

Compound: COc1cc(N)c(Cl)cc1C(=O)N[C@@H]1CCN(CCCCCC(=O)O[C@H]2CN3CCC2CC3)C[C@@H]1OC [Form I, (3S, 4R, 3′R)-6-[4-(4-amino-5-chloro-2-methoxy-benzoylamino)-3-methoxy-piperidin-1-yl]-hexanoic acid 1-azabicyclo[2.2.2]oct-3′-yl ester]
- Thermodynamic stability among anhydrous forms ([4]; based on the outcome of the slurry experiments): most thermodynamically stable anhydrous form
- Resulting Form ([4]; solvent 1-Propanol): Form 1
- Resulting Form ([4]; solvent Acetonitrile): Form 1
- Resulting Form ([4]; solvent Ethanol): Form 1
- Resulting Form ([4]; solvent Methanol): Form 1
- Resulting Form ([4]; solvent Water): Form 1

Compound: (3S, 4R, 3′R)-6-[4-(4-amino-5-chloro-2-methoxy-benzoylamino)-3-methoxy-piperidin-1-yl]-hexanoic acid 1-azabicyclo[2.2.2]oct-3′-yl ester
- Dehydration mass loss (TGA) [5]: absent
- Purity HPLC (Area %) ([6]; 0 months): 99.3 Area %
- Water Content ([6]; 0 months): 0.45%
- Purity HPLC (Area %) ([6]; 3 months): 99.2 Area %
- Water Content ([6]; 3 months): 6.47%
- Purity HPLC (Area %) ([6]; 6 months): 99.3 Area %
- Water Content ([6]; 6 months): 8.47%
- Purity HPLC (Area %) ([6]; 9 months): 99.2 Area %
- Water Content ([6]; 9 months): 8.20%
- Purity HPLC (Area %) ([6]; 12 months): 99.3 Area %
- Water Content ([6]; 12 months): 8.43%
- Decrease in strength of the active ingredient ([6]; due to increase in water content over 6 to 12 months): approximately 8%
